Reference: US20160083391A1, “TRICYCLIC PIPERAZINE DERIVATIVE” (Sunovion Pharmaceuticals Inc., priority 2014, published 2016)

System: PDE1
Test: In vitro HTRF PDE1 inhibition assay
Assay type: biochemical
Conditions: HTRF cGMP assay, 100 nM cyclic GMP, PDE (1A3, 1B or 1C) with calmodulin, 45 minutes at 37° C.; isoform of the tabulated values not stated
Procedure, shortened: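 Activities are given as IC50 bands (<1, 1-10, >10 μM) derived from a 665/615 nm time-resolved FRET readout after d2-cGMP/anti-cGMP cryptate detection. Enzymes PDE1A3, 1B or 1C plus calmodulin were incubated 45 min at 37 °C with 100 nM cGMP, 1% DMSO, CaCl2/MgCl2 Tris buffer pH 7.4.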

IC50 [nM]	SMILES
> 10000	Cn1ncc2c(=O)n3c(nc21)C(Cc1ccccc1)NCC3 (racemic) [Compound I-7, (±)-9-Benzyl-1-methyl-6,7,8,9-tetrahydropyrazino[1,2-a]pyrazolo[3,4-d]pyrimidin-4(1H)-one]
> 10000	O=c1c2nnn(C3CCCC3)c2nc2n1CCN(Cc1ccc(Cl)cc1)C2 [Compound I-128, 6-(4-Chlorobenzyl)-3-cyclopentyl-5,6,7,8-tetrahydropyrazino[1,2-a][1,2,3]triazolo[4,5-d]pyrimidin-10(3H)-one]
< 1000	COc1cncc(N2CCn3c(nc4c(cnn4C(C)C)c3=O)C2)c1 [Compound I-144, 1-Isopropyl-8-(5-methoxypyridin-3-yl)-6,7,8,9-tetrahydropyrazino[1,2-a]pyrazolo[3,4-d]pyrimidin-4(1H)-one]
1000 to 10000	CC(C)Cn1ncc2c(=O)n3c(nc21)CN(Cc1ccccc1)CC3 [Compound I-51, 8-Benzyl-1-isobutyl-6,7,8,9-tetrahydropyrazino[1,2-a]pyrazolo[3,4-d]pyrimidin-4(1H)-one]
< 1000	COc1ccc(CN2CCn3c(nc4c(cnn4C(C)C)c3=O)C2)cc1 [Compound I-82, 1-Isopropyl-8-(4-methoxybenzyl)-6,7,8,9-tetrahydropyrazino[1,2-a]pyrazolo[3,4-d]pyrimidin-4(1H)-one]
< 1000	COc1ccc(CN2Cc3nc4c(cnn4C4CCCC4)c(=O)n3CC2C)cc1 (racemic) [Compound I-120, (±)-1-Cyclopentyl-8-(4-methoxybenzyl)-7-methyl-6,7,8,9-tetrahydropyrazino[1,2-a]pyrazolo[3,4-d]pyrimidin-4(1H)-one]
< 1000	COc1cccc(CN2CCn3c(nc4c(cnn4C4CCCC4)c3=O)C2)c1 [Compound I-81, 1-Cyclopentyl-8-(3-methoxybenzyl)-6,7,8,9-tetrahydropyrazino[1,2-a]pyrazolo[3,4-d]pyrimidin-4(1H)-one]
> 10000	Cc1nn(C2CCCC2)c2nc3n(c(=O)c12)CCN(Cc1ccc(Cl)cc1)C3 [Compound I-111, 8-(4-Chlorobenzyl)-1-cyclopentyl-3-methyl-6,7,8,9-tetrahydropyrazino[1,2-d]pyrazolo[3,4-d]pyrimidin-4(1H)-one]
> 10000	CC(C)n1ncc2c(=O)n3c(nc21)CN(Cc1ccccc1)C(c1ccccc1)C3 (racemic) [Compound I-108, (±)-8-Benzyl-1-isopropyl-7-phenyl-6,7,8,9-tetrahydropyrazino[1,2-a]pyrazolo[3,4-d]pyrimidin-4(1H)-one]
1000 to 10000	CC(C)c1nnc2c(=O)n3c(nn12)CN(CCc1ccccc1)CC3 [Compound I-225, 3-Isopropyl-7-phenethyl-8,9-dihydro-6H-pyrazino[2,1-c][1,2,4]triazolo[3,4-f][1,2,4]triazin-11(7H)-one]
1000 to 10000	CCCn1ncc2c(=O)n3c(nc21)CN(c1ccc(Cl)c(Cl)c1)CC3 [Compound I-168, 8-(3,4-Dichlorophenyl)-1-propyl-6,7,8,9-tetrahydropyrazino[1,2-a]pyrazolo[3,4-d]pyrimidin-4(1H)-one]
1000 to 10000	CCC1Cn2c(nc3c(cnn3C(C)C)c2=O)CN1Cc1ccc(OC)cc1 (racemic) [Compound I-153, (±)-7-Ethyl-1-isopropyl-8-(4-methoxybenzyl)-6,7,8,9-tetrahydropyrazino[1,2-a]pyrazolo[3,4-a]pyrimidin-4(1H)-one]
< 1000	COc1cccc(N2CCn3c(nn4c(C5CCCC5)ncc4c3=O)C2)c1 [Compound I-181, 3-Cyclopentyl-7-(3-methoxyphenyl)-8,9-dihydro-6H-imidazo[5,1-f]pyrazino[2,1-c][1,2,4]triazin-11(7H)-one]
< 1000	CC1Cn2c(nc3c(cnn3C3CCCC3)c2=O)CN1Cc1ccc(Cl)cc1 (racemic) [Compound I-119, (±)-8-(4-Chlorobenzyl)-1-cyclopentyl-7-methyl-6,7,8,9-tetrahydropyrazino[1,2-a]pyrazolo[3,4-d]pyrimidin-4(1H)-one]
1000 to 10000	COCCn1ncc2c(=O)n3c(nc21)CN(Cc1ccc(OC)cc1)CC3 [Compound I-158, 8-(4-Methoxybenzyl)-1-(2-methoxyethyl)-6,7,8,9-tetrahydropyrazino[1,2-a]pyrazolo[3,4-d]pyrimidin-4(1H)-one]
< 1000	CC(C)c1ncc2c(=O)n3c(nn12)CN(c1ccc(C(F)(F)F)cc1)CC3 [Compound I-240]
< 1000	CC1Cn2c(nc3c(cnn3C(C)C)c2=O)CN1Cc1ccc(Cl)cc1 (racemic) [Compound I-147, (±)-8-(4-Chlorobenzyl)-1-isopropyl-7-methyl-6,7,8,9-tetrahydropyrazino[1,2-a]pyrazolo[3,4-d]pyrimidin-4(1H)-one]
1000 to 10000	CC(C)Cn1ncc2c(=O)n3c(nc21)CN(Cc1ccccc1Cl)CC3 [Compound I-68, 8-(2-Chlorobenzyl)-1-isobutyl-6,7,8,9-tetrahydropyrazino[1,2-a]pyrazolo[3,4-d]pyrimidin-4(1H)-one]

IC50 [nM]	SMILES
< 1000	COc1ccc(CN2CCn3c(nc4c(cnn4C(C)C)c3=O)C2)cc1F [Compound I-140, 8-(3-Fluoro-4-methoxybenzyl)-1-isopropyl-6,7,8,9-tetrahydropyrazino[1,2-a]pyrazolo[3,4-d]pyrimidin-4(1H)-one]
> 10000	COc1ccc(CN2CCn3c(nc4c(cnn4C4CCOC4)c3=O)C2)cc1 (racemic) [Compound I-219, (±)-8-(4-methoxybenzyl)-1-(tetrahydrofuran-3-yl)-6,7,8,9-tetrahydropyrazino[1,2-a]pyrazolo[3,4-d]pyrimidin-4(1H)-one]
1000 to 10000	CC(c1ccc(Cl)cc1)N1CCn2c(nc3c(cnn3C3CCCC3)c2=O)C1 (racemic) [Compound I-113, (±)-8-(1-(4-Chlorophenyl)ethyl)-1-cyclopentyl-6,7,8,9-tetrahydropyrazino[1,2-a]pyrazolo[3,4-d]pyrimidin-4(1H)-one]
1000 to 10000	O=C(c1ccc(Cl)cc1)N1CCn2c(nc3c(cnn3C3CCCC3)c2=O)C1 [Compound I-115, 8-(4-Chlorobenzoyl)-1-cyclopentyl-6,7,8,9-tetrahydropyrazino[1,2-a]pyrazolo[3,4-d]pyrimidin-4(1H)-one]
< 1000	CC(C)c1ncc2c(=O)n3c(nn12)CN(Cc1ccc(Cl)cc1)CC3 [Compound I-179, 7-(4-Chlorobenzyl)-3-isopropyl-8,9-dihydro-6H-imidazo[5,1-f]pyrazino[2,1-c][1,2,4]triazin-11(7H)-one]
< 1000	COc1ccc(CN2CCn3c(nn4c(C5CCOCC5)ncc4c3=O)C2)cc1 [Compound I-234, 7-(4-Methoxybenzyl)-3-(tetrahydro-2H-pyran-4-yl)-8,9-dihydro-6H-imidazo[5,1-f]pyrazino[2,1-c][1,2,4]triazin-11(7H)-one]
< 1000	CC(C)c1ncc2c(=O)n3c(nn12)CN(c1ccc(Cl)cc1)CC3 [Compound I-175, 7-(4-Chlorophenyl)-3-isopropyl-8,9-dihydro-6H-imidazo[5,1-f]pyrazino[2,1-c][1,2,4]triazin-11(7H)-one]
1000 to 10000	CC(C)(C)n1ncc2c(=O)n3c(nc21)CN(c1ccc(Cl)cc1)CC3 [Compound I-247, 1-(tert-Butyl)-8-(4-chlorophenyl)-6,7,8,9-tetrahydropyrazino[1,2-a]pyrazolo[3,4-d]pyrimidin-4(1H)-one]
< 1000	CC1Cn2c(nc3c(cnn3C(C)C)c2=O)CN1Cc1ccc(F)cc1 (racemic) [Compound I-148, (±)-8-(4-Fluorobenzyl)-1-isopropyl-7-methyl-6,7,8,9-tetrahydropyrazino[1,2-d]pyrazolo[3,4-d]pyrimidin-4(1H)-one]
< 1000	COc1cccc(N2CCn3c(nc4c(cnn4C(C)C)c3=O)C2)c1 [Compound I-97, 1-Isopropyl-8-(3-methoxyphenyl)-6,7,8,9-tetrahydropyrazino[1,2-a]pyrazolo[3,4-d]pyrimidin-4(1H)-one]
< 1000	O=c1c2cnc(C3CCOC3)n2nc2n1CCN(c1ccccc1)C2 (racemic) [Compound I-229, (±)-7-Phenyl-3-(tetrahydrofuran-3-yl)-8,9-dihydro-6H-imidazo[5,1-f]pyrazino[2,1-c][1,2,4]triazin-11(7H)-one]
> 10000	O=c1c2cn[nH]c2nc2n1CCN(Cc1ccccc1)C2 [Compound I-27, 8-Benzyl-6,7,8,9-tetrahydropyrazino[1,2-a]pyrazolo[3,4-d]pyrimidin-4(1H)-one]
< 1000	Cc1cnc(CN2CCn3c(nn4c(C5CCCC5)ncc4c3=O)C2)cn1 [Compound I-209, 3-Cyclopentyl-7-((5-methylpyrazin-2-yl)methyl)-8,9-dihydro-6H-imidazo[5,1-f]pyrazino[2,1-c][1,2,4]triazin-11(7H)-one]
< 1000	O=c1n2c(nc3c(C4CCCC4)ncn13)CN(Cc1ccc(Cl)cc1)CC2 [Compound I-258, 6-(4-Chlorobenzyl)-3-cyclopentyl-7,8-dihydro-5H-imidazo[1,5-a]pyrazino[2,1-d][1,3,5]triazin-10(6H)-one]
1000 to 10000	Cc1cnc(CN2CCn3c(nc4c(cnn4C4CCCC4)c3=O)C2)cn1 [Compound I-207, 1-Cyclopentyl-8-((5-methylpyrazin-2-yl)methyl)-6,7,8,9-tetrahydropyrazino[1,2-a]pyrazolo[3,4-d]pyrimidin-4(1H)-one]
1000 to 10000	COc1cccc(CN2CCn3c(nc4c(cnn4C(C)C)c3=O)C2)c1 [Compound I-79, 1-Isopropyl-8-(3-methoxybenzyl)-6,7,8,9-tetrahydropyrazino[1,2-a]pyrazolo[3,4-d]pyrimidin-4(1H)-one]
1000 to 10000	O=c1c2cnn(C3CCOC3)c2nc2n1CCN(c1ccccc1)C2 (racemic) [Compound I-216, (±)-8-Phenyl-1-(tetrahydrofuran-3-yl)-6,7,8,9-tetrahydropyrazino[1,2-a]pyrazolo[3,4-d]pyrimidin-4(1H)-one]
1000 to 10000	O=c1c2cnn(C3CCCC3)c2nc2n1CCN(c1cccc(Cl)c1)C2 [Compound I-90, 8-(3-Chlorophenyl)-1-cyclopentyl-6,7,8,9-tetrahydropyrazino[1,2-a]pyrazolo[3,4-d]pyrimidin-4(1H)-one]
